Reference: US11117876B2, “Crystalline form of ozanimod hydrochloride, and processes for preparation thereof” (RECEPTOS, LLC, priority 2017, dated 2021)
“Also recorded” adds a separate entry of the source. Structures can show the parent of a compound that is named as a salt.

Experiments:
Format in all cases: physicochemical
[1] = Particle size distribution of Form CS2 (laser particle size analyzer); conditions: wet mode, Isopar G
Experimental: The particle size distribution data in the present disclosure were acquired by an S3500 laser particle size analyzer of Microtrac. Microtrac S3500 is equipped with an SDC (Sample Delivery Controller). The test is carried out in wet mode, and the dispersion medium is Isopar G. The parameters are as follows:
10-30 mg of Form CS2 and 10 mL of Isopar G (containing 0.2% lecithin) were mixed thoroughly and then transferred into the SDC. The measurement was started when the sample amount indicator is in appropriate position. The average particle diameter calculated by volume, the diameter at which 10% mass is comprised of smaller particles, the diameter at which 50% mass is comprised of smaller particles and the diameter at which 90% mass is comprised of smaller particles were obtained in particle size distribution test.
Explanation of the abbreviations used in the present invention is as follows: • MV: Average particle diameter calculated by volume. • D10: the size in microns below which 10 percent of the particles reside on a volume basis. • D50: the size in microns below which 50 percent of the particles reside on a volume basis, also known as the median diameter. • D90: the size in microns below which 90 percent of the particles reside on a volume basis.

[2] = Hygroscopicity of Form CS2 by dynamic vapor sorption (DVS); conditions: for Weight gain under 80% RH: 25° C., hydrochloride
Experimental: Dynamic Vapor Sorption (DVS) is measured via a SMS (Surface Measurement Systems Ltd.) intrinsic DVS instrument. Its control software is DVS-Intrinsic control software, and its analysis software is DVS-Intrinsic Analysis software. Typical Parameters for DVS test are as follows: • Temperature: 25° C. • Gas and flow rate: N2, 200 mL/min • dm/dt: 0.002%/min • RH range: 0% RH to 95% RH
Dynamic vapor sorption (DVS) was applied to test hygroscopicity of Form CS2 with about 10 mg of sample. The DVS plot of Form CS2 is depicted in FIG. 9.

[3] = Mechanical stability of Form CS2 (manual grinding, XRPD); conditions: ground manually for 5 minutes in a mortar
Experimental: Solid sample of Form CS2 was ground manually for 5 minutes in a mortar. The XRPD comparison pattern of Form CS2 before and after grinding is depicted in FIG. 8.

[4] = Dynamic solubility of Form CS2 in SGF, FeSSIF, FaSSIF and water; conditions: for solubility at 1 h / solubility at 4 h / solubility at 24 h: thermodynamic from solid
Experimental: High Performance Liquid Chromatography (HPLC) data for solubility test in example 5 of the present disclosure were collected from an Agilent 1100 with Diode Array Detector (DAD). The HPLC method parameters are as follows: • Column: L005# Waters Xbridge C18, 150×4.6 mm, 5 μm • Mobile Phase: A: 0.1% TFA in H2O • B: 0.1% TFA in Acetonitrile
• Flow rate: 1.0 ml/min • Injection Volume: 5 μl • Detection wavelength: 270 nm • Column Temperature: 40° C. • Diluent: MeOH/THF (v/v, 6/4)
Simulated gastrointestinal fluids such as SGF (Simulated gastric fluids), FaSSIF (Fasted state simulated intestinal fluids) and FeSSIF (Fed state simulated intestinal fluids) are biorelevant media. Solubility in such media is closer to that in human environment, which can reflect the effects of gastrointestinal environment on drug release better.
20 mg of Form CS2 was suspended into 1.5 mL of SGF, 1.5 mL of […], 1.5 mL of […] and 1.5 mL of water to get saturated solutions. After equilibrated for 1 h, 4 h and 24 h, concentrations (mg/mL) of the saturated solutions were measured by HPLC.

[5] = Long-term and accelerated stability of Form CS2 (XRPD and HPLC purity after storage); conditions: 7 weeks, open dish, hydrochloride
Excerpt: X-ray powder diffraction pattern in the present disclosure was acquired by a Panalytical Empyrean X-ray powder diffractometer. The parameters of the X-ray powder diffraction method of the present disclosure were as follows: • X-ray Reflection: Cu, Kα. • Kα1 (Å): 1.540598; Kα2 (ÅA): 1.544426 • Kα2/Kα1 intensity ratio: 0.50 • Voltage: 45 (kV) • Current: 40 (mA) • Scan range: from 3.0 to 40.0 degree
High Performance Liquid Chromatography (HPLC) data for purity test in example 4 of the present disclosure were collected from an Agilent 1260 with UV Variable Wavelength Detector (VWD). The HPLC method parameters are as follows: • Column: Waters XBridge C18 150×4.6 mm, 5 μm • Mobile Phase: A: 0.1% TFA in H2O • B: 0.1% TFA in Acetonitrile
• Flow rate: 1.0 mL/min • Injection Volume: 10 μL • Detection wavelength: 270 nm • Column Temperature: 40° C. • Diluent: MeOH/THF (v/v, 6/4)
Three solid samples of Form CS2 were stored under the conditions of 25° C./60% RH, 40° C./75% RH and 60° C./75% RH for 7 weeks in open dishes. XRPD of the samples was tested and the physical stability results are shown in FIG. 7 (from top to bottom: XRPD pattern of Form CS2 before and after being stored under the conditions of 25° C./60% RH, 40° C./75% RH and 60° C./75% RH for 7 weeks). Chemical purity of Form CS2 was tested after stored under the conditions of 25° C./60% RH and 40° C./75% RH for 7 weeks and the results are shown in Table 4.

[6] = FaSSIF (fasted state simulated intestinal fluid), FaSSIF
[7] = FeSSIF (fed state simulated intestinal fluid), FeSSIF

D10 [1]: 7.6 μm | D50 [1]: 44.90 μm | D90 [1]: 149.4 μm | Particle size distribution (in words) [1]: uniform | MV (average particle diameter calculated by volume) ([1]; hydrochloride): about 64.22 μm | MV (average particle diameter calculated by volume) ([1]; listed as CS2, hydrochloride): 64.22 μm | Weight gain under 80% RH [2]: 2.34% | Weight gain under 80% RH ([2]; listed as Form CS2 of ozanimod hydrochloride): 2.34% | Hygroscopicity (in words) ([2]; 80% RH): low | Crystalline form change after grinding (XRPD) [3]: doesn't change | solubility at 1 h [4, 6]: 3000 µg/mL | solubility at 4 h ([4]; FaSSIF (fasted state simulated intestinal fluid), FaSSIF, 4 h): 3000 µg/mL | solubility at 24 h [4, 6]: 3100 µg/mL | solubility at 1 h [4, 7]: 300 µg/mL | solubility at 4 h ([4]; FeSSIF (fed state simulated intestinal fluid), FeSSIF, 4 h): 280 µg/mL | solubility at 24 h [4, 7]: 320 µg/mL | solubility at 24 h ([4]; SGF (simulated gastric fluid), simulated gastric fluid, SGF): 240 µg/mL | Solubility ([4]; SGF, 4 h): 0.21 mg/mL | Solubility (in words) ([4]; in SGF, FeSSIF, FaSSIF and H2O): high | solubility at 4 h ([4]; water, H2O, 4 h): 2200 µg/mL | solubility at 24 h ([4]; water, H2O): 2400 µg/mL
SMILES: CC(C)Oc1ccc(-c2nc(-c3cccc4c3CC[C@@H]4NCCO)no2)cc1C#N [Form CS2, ozanimod hydrochloride]
Crystalline form change after storage (XRPD) ([5]; 25° C./60% RH): no form change; also recorded: doesn't change | Crystalline form change after storage (XRPD) ([5]; 40° C./75% RH): no form change; also recorded: doesn't change | Crystalline form change after storage (XRPD) ([5]; 60° C./75% RH): no form change; also recorded: doesn't change
